# Results reported in PMC9804084, “Multiple drug transporters contribute to the brain transfer of levofloxacin” (CNS Neuroscience & Therapeutics, 2022).
# Where two headings read alike, the source gives them in different places.
# What was measured:
# [1] = Stability of LVFX in QC samples (dialysate solvents) under storage conditions; assay type: physicochemical; details: for Calculated concentration (mean ± SD): n=3
# Protocol: Using artificial cerebrospinal fluid (ACSF) and Ringer's solution as solvents, the LVFX concentration required for calibration and quality control (QC) samples was obtained by appropriate step‐by‐step dilution. A calibration curve was constructed using the relationship between the analyte peak area and analyte concentration obtained in the range of 0.01–30 μg/ml. Linearity was assessed by a weighted (1/x ^2) least squares regression analysis. The accuracy and precision of the method were evaluated by QC samples of high, medium, and low concentrations. Quantification of the concentration of QC samples was conducted three times on the same day to evaluate the intra‐day precision and accuracy. The same procedure was employed for 3 consecutive days to evaluate the inter‐day precision and accuracy of this method. The relative error (RE%) and relative standard deviation (RSD%) were used to evaluate the accuracy and precision, respectively. We evaluated the stability of LVFX in dialysates under short‐term (6 h) room temperature, low temperature (4°C), and freeze–thaw conditions (three cycles).
# [2] = system: Organic anion transporters (OATs); experiment: In vivo microdialysis pharmacokinetics of LVFX with OATs inhibitor probenecid; design: species or system rat; details: for MRT / half-life / Tmax / AUC(0-inf) / Cmax / AUC(0-t) / Kp: rat, intravenous, with Probenecid 50 mg/kg i.p., PRO group, Probenecid 50 mg/kg i.p. + LVFX 50 mg/kg, N=5; for MRT / half-life / AUC(0-inf) / Cmax / AUC(0-t): mean ± SD; for AUC(0-t): read-out: AUC0–180 (converted)
# Protocol: On the day of surgery, rats were anesthetized using inhaled isoflurane via a facemask. The rats were placed in a stereotaxic frame (Gene&I), and the body temperature was maintained with a homoeothermic blanket set at 37°C. A midline incision was made to expose the skull. According to the Paxinos and Watson atlas, two microdialysis intracerebral guide cannulae (Eicom Co.) were implanted into the hippocampus CA1 region (Hp‐CA1 coordinates: AP −4.16 mm; ML −2.2 mm; DV −2.9 mm) and lateral ventricle (LV coordinates: AP −1.4 mm; ML +2.2 mm; DV −3.4 mm). Fixed to the skull using a screw and dental cement. After 3 days of recovery, the rats were anesthetized with isoflurane again. An intravascular probe (TP‐100‐20; 20 mm, Eicom Co.) was implanted into the jugular vein toward the right atrium. After the blood microdialysis probe was positioned within the jugular vein, the pipeline was connected to perfuse with ACD solution (citric acid 3.5 mM; sodium citrate 7.5 mM; dextrose 13.6 mM) at a flow rate of […], and the Hamilton microinjection pump was used for continuous perfusion. After stopping isoflurane inhalation, the rats were allowed to wake up naturally on the homoeothermic blanket. The awake rats were placed in a device that allowed them to move freely. Animals were allowed to recover for an additional 24 h.
# All microdialysate concentrations (C m) from the hippocampal ECF and lateral ventricle CSF were converted to the unbound drug concentration (C u) at the target site using the following formula: C u = C m/R dial.
# A total of 32 rats were randomly divided into the following groups: • Control group, N = 12: vehicle solution + LVFX (50 mg/kg). • TAR group, N = 5: Tariquidar (8 mg/kg) + LVFX (50 mg/kg). • Ko143 group, N = 5: Ko143 (15 mg/kg) + LVFX (50 mg/kg). • MK571 group, N = 5: MK571 (20 mg/kg) + LVFX (50 mg/kg). • PRO group, N = 5: Probenecid (50 mg/kg) + LVFX (50 mg/kg).
# Levofloxacin was freshly dissolved in isotonic saline and administered via tail vein injection. Thirty minutes before LVFX administration, the intervention drugs of each group were injected intraperitoneally. To reduce the possible effect of solvents on BBB or BCSFB permeability of LVFX, we prioritized water as the solvent. However, Tariquidar and Ko143 are insoluble in water, and a cosolvent must be used to prepare agents that animals can tolerate. According to the different physicochemical properties of these four inhibitors, the preparation of each transporter inhibitor solution in this experiment was as follows. • P‐glycoprotein (P‐gp) inhibitor Tariquidar[22]: Tariquidar was freshly dissolved in DMSO to 8 mg/ml and then diluted to 4 mg/ml with a solution containing 10% Tween‐80, 25% PEG300, and 65% sterile water. • Breast cancer resistance protein (BCRP) inhibitor Ko143[23]: Ko143 was freshly dissolved in DMSO to 15 mg/ml and then diluted to 7.5 mg/ml with a solution containing 10% Tween‐80, 25% PEG300, and 65% sterile water. • Multidrug resistance‐associated proteins (MRPs) inhibitor MK571[24]: MK571 sodium salt hydrate was dissolved in 1.25% (w/v) aq sodium hydrogen carbonate (NaHCO3) solution to obtain a concentration of 10 mg/ml. • Organic anion transporters (OATs) inhibitor probenecid[25]: Probenecid was dissolved in NaOH (pH = 9.0–9.2) alkalized physiological saline to obtain a concentration of 25 mg/ml.
# The pipelines where the blood and brain probes were installed were perfused at the speed of 2 μl/min with ACD solution and ACSF, respectively. Two brain probes were inserted into guide cannulas of the target site and allowed to equilibrate for 1 h. Subsequently, the rats were treated according to their corresponding groups in the device where they could move freely. Microdialyses samples were collected every 15 min using a fraction collector (EFC‐96, Eicom Co.) for 3 h and stored at 4°C until analysis. Finally, rats were anesthetized and decapitated, and their brain was harvested.
# [3] = blood, PRO group (probenecid 50 mg/kg) vs control group
# [4] = CSF (lateral ventricle microdialysate, unbound), 30 min before LVFX, CSF
# [5] = CSF (lateral ventricle microdialysate, unbound), CSF
# [6] = brain ECF (hippocampal microdialysate, unbound), 30 min before LVFX, brain ECF
compound,measurement,setting,value
"C[C@H]1COc2c(N3CCN(C)CC3)c(F)cc3c(=O)c(C(=O)O)cn1c23 [LVFX, Levofloxacin]",stability under storage conditions employed,"[1]; QC samples, room temp 6 h, 4°C, freeze–thaw 3 cycles",stable
same,maximum deviation in stability test of QC samples,[1]; all storage conditions (Table 2),4.71%
same,Calculated concentration (mean ± SD),"[1]; freeze–thaw (3 cycles), nominal concentration 0.3 μg/ml",0.289 ± 0.008 µg/mL
same,Calculated concentration (mean ± SD),"[1]; freeze–thaw (3 cycles), nominal concentration 3 μg/ml",2.960 ± 0.140 µg/mL
same,Calculated concentration (mean ± SD),"[1]; freeze–thaw (3 cycles), nominal concentration 30 μg/ml",29.959 ± 0.417 µg/mL
same,Calculated concentration (mean ± SD),"[1]; low temperature (4°C) 12 h, nominal concentration 0.3 μg/ml",0.294 ± 0.012 µg/mL
same,Calculated concentration (mean ± SD),"[1]; low temperature (4°C) 12 h, nominal concentration 3 μg/ml",3.055 ± 0.105 µg/mL
same,Calculated concentration (mean ± SD),"[1]; low temperature (4°C) 12 h, nominal concentration 30 μg/ml",29.844 ± 0.102 µg/mL
same,Calculated concentration (mean ± SD),"[1]; short term (room temp) 6 h, nominal concentration 0.3 μg/ml",0.293 ± 0.011 µg/mL
same,Calculated concentration (mean ± SD),"[1]; short term (room temp) 6 h, nominal concentration 3 μg/ml",3.098 ± 0.056 µg/mL
same,Calculated concentration (mean ± SD),"[1]; short term (room temp) 6 h, nominal concentration 30 μg/ml",30.608 ± 0.405 µg/mL
same,AUC0–180 higher than control group,[2]; [3],128.6%
same,AUC0–∞ higher than control group,[2]; [3],143.0%
same,C max greater than control group,[2]; [3],71.2%
same,MRT longer than control group,[2]; [3],1.29 times
same,t 1/2 longer than control group,[2]; [3],1.28 times
same,MRT,[2]; [4],1.47 h
same,half-life,[2]; [4],57.5 ± 7.55 min
same,Tmax,[2]; [5],15 min
same,AUC(0-inf),[2]; [5],9510 ng·h/mL
same,Cmax,[2]; [5],6800 ± 240 ng/mL
same,AUC(0-t),[2]; [5],8330 ng·h/mL
same,Kp,"[2]; CSF / blood (unbound, microdialysate), 30 min before LVFX, AUCu,CSF/AUCu,blood, read-out: K p,uu,CSF",0.359 ± 0.008
same,Tmax,[2]; [6],15 min
same,AUC(0-inf),[2]; [6],9220 ng·h/mL
same,Cmax,[2]; [6],5850 ± 180 ng/mL
same,half-life,[2]; [6],67 ± 16.8 min
same,AUC(0-t),[2]; [6],7830 ng·h/mL
same,Kp,"[2]; brain ECF / blood, 30 min before LVFX, AUCu,ECF/AUCu,blood, read-out: K p,uu,ECF",0.337 ± 0.012
same,Tmax,"[2]; 30 min before LVFX, blood",15 min
same,AUC(0-inf),"[2]; 30 min before LVFX, blood",27000 ng·h/mL
same,Cmax,"[2]; 30 min before LVFX, blood",17500 ± 600 ng/mL
same,MRT,"[2]; 30 min before LVFX, blood",1.58 h
same,half-life,"[2]; 30 min before LVFX, blood",63.1 ± 9.61 min
same,AUC(0-t),"[2]; 30 min before LVFX, blood",23200 ng·h/mL
same,MRT,"[2]; 30 min before LVFX, brain ECF",1.61 h
